# Data published in PubChem BioAssay AID179 (DTP/NCI, 2004).
# pEC50, pIC50: −log10 of the molar value. The source made the active and inactive calls.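 How the source made its calls: active means compounds giving half or more protection of infected cells from virus-caused growth loss, again on retest; inactive means the rest.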
# System: CEM cells HIV-1 protection, formazan growth assay
# Experiment: NCI AIDS Antiviral Assay
# Conditions: for pIC50: measured here: growth of uninfected CEM cells
# Outline: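 Category rules: moderately active means at least 50% protection on retest, and confirmed active means 100% protection reproducibly. The underlying data came from a formazan growth assay in HIV-1-infected CEM cells.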
Compound,pEC50,pIC50,outcome
O=c1oc2c3ccc4ccccc4c3n(Cc3nc4ccccc4[nH]3)c2c2ccccc12,< 5.08,5.33,
CN1c2ccccc2C(=O)NC12CCN(CC1COc3ccccc3O1)CC2 (configuration not stated),< 3.70,4.05,
Nc1nc2c(ncn2Cc2ccccc2CCO)c(=O)[nH]1,< 4.32,< 4.32,
COc1ccc2c(n1)Sc1nc3ccccc3nc1N2,< 3.70,4.61,
COc1ccc(/C=C(/C#N)c2ccc(Cl)cc2)cc1,< 3.70,5.40,
Cc1c2ccccc2nc(CN2CCCCC2)[n+]1[O-],< 3.70,< 3.70,
O=C1C2=C(C(=O)c3ccccc31)C(O)(S(=O)(=O)O)C(O)(S(=O)(=O)O)C1N=CC=CC21 (configuration not stated),< 3.70,5.47,
O=C1c2cccc3cccc(c23)C(=O)N1NCCO,< 3.70,3.79,
O=[N+]([O-])C(=C(N1CCOCC1)N1CCOCC1)/C(Cl)=C(\Cl)Br,< 3.70,5.01,
O=C1NC(=O)C(=Cc2cccc(F)c2)C(=O)N1,< 3.95,< 3.95,
c1cnc2nc3c4ccccc4c4ccccc4c3nc2c1,< 4.45,< 4.45,
O=c1[nH]c2ccccc2c(O)c1/C=N/C(=S)NCCc1ccccc1,< 3.70,< 3.70,
NC(=O)C(=CNC(=S)Nc1ccc(Cl)c(Cl)c1)C(N)=O,< 3.70,4.52,
CC(C)N1CC2CC(CN(C(=O)c3ccc(Cl)cc3)C2)C1,< 3.37,< 3.37,
OCC1=CCN2C[C@@H](O)[C@@H](O)[C@@H]12,< 3.70,< 3.70,
CCOC(=O)C1SC(=Nc2ccccc2)N=C1C (configuration not stated),,,inactive
S=c1sc2c(Cl)nc(Cl)nc2n1-c1ccccc1,< 4.50,< 4.50,
COc1c(Br)cc(/C=C(\C#N)c2cccnc2)cc1Br,< 3.70,4.60,
Cc1cccc(-n2nc3c(=O)n(C)c(=O)n(C)c3nc2=O)c1,< 3.70,< 3.70,
C[C@@H]1Cc2c(-c3cc(-c4cc(-c5c(O)cc(O)c6c5C[C@@H](C)N[C@@H]6C)c5ccccc5c4O)c(O)c4ccccc34)c(O)cc(O)c2[C@@H](C)N1,3.94,< 3.70,
CCCN(CCC)CC(=O)Nc1cccc(Cl)c1C,< 3.70,4.20,
O=C(CNC(=O)c1ccc(Cl)cc1)NO,< 3.70,< 3.70,

Compound,pEC50,pIC50,outcome
COc1cc(C2c3cc4c(cc3OC(O)C2C)OCO4)cc(OC)c1O (configuration not stated),< 3.70,5.98,
COc1ccc(/C=C2/NC(=S)N=C2Cl)cc1,< 3.70,< 3.70,
Cc1ccc2c(c1)C1C(CO2)C(c2ccccc2)=NN1c1ccccc1 (configuration not stated),< 3.98,< 3.98,
COc1ccc(/C=C2\NC(=S)N(/C=C3\C(=O)Oc4ccccc4C3=O)C2=O)cc1OC,< 3.70,< 3.70,
CC1(C)CNC[C@@]2(C)OCCO[C@@]3(C)CNCC(C)(C)[N-]C(=O)[C@@](C)(CNCC(C)(C)[N-]C3=O)OCCO[C@](C)(CNCC(C)(C)[N-]C2=O)C(=O)[N-]1.[Cu+2].[Cu+2],< 3.70,< 3.70,
N#Cc1ccccc1NC(=O)/C(=N\N)C(C(=O)c1ccncc1)C1OC(=O)c2ccccc21 (configuration not stated),,,inactive
COc1cc2c(cc1OC)C(CCl)c1cc(OC)c(OC)cc1C=C2,< 4.00,< 4.00,
O=S(=O)(O)c1cc(O)c2c(O)cc(S(=O)(=O)O)c(N=Nc3ccc(/C=C/c4ccc(N=Nc5c(S(=O)(=O)O)cc(O)c6c(O)cc(S(=O)(=O)O)cc56)cc4S(=O)(=O)O)c(S(=O)(=O)O)c3)c2c1,4.81,4.12,
Cc1n[nH]c(=S)n1NC=O,< 3.70,< 3.70,
COc1ccc(C(=C(C#N)C#N)c2ccc(OC)cc2)cc1,,,inactive
Cn1cnc2nc3ncn(C)c3cc21,< 3.70,< 3.70,
CC(=O)OC12C=CC(=O)N1c1ccccc1C(=O)O2 (configuration not stated),,,inactive
C=C1C2CC[C@H]3C45CO[C@@](O)(C(O)[C@@H]4C(C)(C)C=CC5=O)C3(C2)C1OC(C)=O (some centres not stated),< 3.47,4.63,
O=NC1C2CCC(C2)C1N=O.[Co].[c-]1[c-][c-][cH-][c-]1 (configuration not stated),< 3.70,4.31,
COc1ccc(-c2[nH]c(-c3ccc(OC)cc3)c(-c3ccccn3)c2-c2ccccn2)cc1,< 3.70,4.61,
O=C(O)c1ccc2c(c1)C(=O)N(c1ccc(Oc3ccc(N4C(=O)c5ccc(C(=O)O)cc5C4=O)cc3)cc1)C2=O,,,inactive
CN(C)CCNS(=O)(=O)c1ccc(N)cc1,< 3.70,< 3.70,
c1cncc(CN2CCCCC2)c1,,,inactive
CCOC(=O)C(C)(C)Oc1ccc(/C=C/C(=O)c2ccc(Cl)cc2)cc1,< 5.00,< 5.00,
COC(=O)C1CC2C(=O)N(c3ccccc3)C(=O)C2c2c1n(C)c1ccccc21 (configuration not stated),< 4.49,< 4.49,
[O-]c1nn(C2OC(CO)C(O)C2O)c2cccc[n+]12 (configuration not stated),< 3.03,< 3.03,
O[C@]12C=C[C@H](CCCC1)O2,< 3.70,4.30,

Compound,pEC50,pIC50,outcome
CNc1cc(C)ccc1S(=O)(=O)c1ccccc1[N+](=O)[O-],6.66,4.52,
Nc1nc2ncn(CCO)c2c(=O)[nH]1,< 4.03,< 4.03,
N#CC(NC12CC3CC(CC(C3)C1)C2)c1ccc2c(c1)OCO2 (configuration not stated),,,inactive
NC(=O)NNc1nc(-c2ccccc2)cs1,< 3.70,4.06,
CCOC(=O)CN1C(=O)c2cc([N+](=O)[O-])cc3cc([N+](=O)[O-])cc(c23)C1=O,,,inactive
Cc1ccc(S(=O)(=O)NC(=S)S)cc1,< 3.70,< 3.70,
CCC(=O)C12OC3OC(C)(C)OC3C1OC(C)(C)O2 (configuration not stated),,,inactive
COc1cc(NC=O)c2c(c1)SCC(=O)N2,< 3.70,3.87,
OC1C2CCN(CC2)C1CNC12CC3CC(CC(C3)C1)C2 (configuration not stated),< 2.76,3.53,
O=C(CC1=Nc2nnc(CCCCCCCc3nnc4n3C(=O)C(CC(=O)c3ccccc3)=N4)n2C1=O)c1ccccc1,< 5.74,< 5.74,
COc1ccc(C2C(Cl)C(=O)N2NC(=O)Cc2ccccc2)cc1OC (configuration not stated),< 4.02,< 4.02,
CC(C)CC(NC=O)C(=O)NC(Cc1ccccc1)NC(=O)CNC(=O)C(C)NC(=O)OC(C)(C)C (configuration not stated),< 3.70,< 3.70,
C=C(C)[C@@H]1CC[C@]2(C)CC[C@]3(C)[C@H](CC[C@@H]4[C@@]5(C)CC[C@H](O)C(C)(C)[C@@H]5CC[C@]43C)[C@@H]12,< 4.00,4.29,
Cc1nc(-n2nc(-c3ccccc3)cc2-c2ccccc2)sc1C(/C=C/c1ccc([N+](=O)[O-])cc1)=N/NC(=O)c1ccncc1,< 4.37,4.43,
NC(=O)C(NC=O)c1ccccc1 (configuration not stated),< 3.70,< 3.70,
CC(=O)C1(C)CC(C#N)(C#N)C(C#N)=C1N (configuration not stated),< 3.70,< 3.70,
CC(C)CCCC(C)[C@H]1CC[C@H]2[C@H]3CC[C@H]4C[C@@H](CCC=C(c5cc(Cl)c(O)c(C(=O)O)c5)c5cc(Cl)c(O)c(C(=O)O)c5)CC[C@]4(C)[C@H]3CC[C@]12C (some centres not stated),< 3.70,< 3.70,
COCC1=C(O)C=C2Oc3c(C(C)=O)c(O)c(C)c(O)c3[C@@]2(C)C1=O,< 4.00,4.92,
COc1cccc(C2CC23C(=O)NC(=O)NC3=O)c1 (configuration not stated),< 4.00,< 4.00,
COc1cccc(C2c3cc4c(cc3OC(N3CCCC3)C2c2ccccc2)OCO4)c1O (configuration not stated),< 3.70,5.50,
CCCc1cc(=O)oc2c3c(cc(OC(C)C)c12)O[C@H](C)[C@H](C)C3=O,< 3.70,4.52,
CC1CCC2(OCCO2)[C@]2(C)CC(O)C(=O)C=C12 (some centres not stated),,,inactive

Compound,pEC50,pIC50,outcome
NCCCNCCNCCCN,< 3.70,< 3.70,
COc1ccc(C2C3=C(COC3=O)OC(C)(C)Oc3cc4c(cc32)OCO4)cc1OC (configuration not stated),< 3.70,4.91,
Cc1cccc(C)c1NC(=O)C(=O)CC(=O)CO,< 3.14,< 3.14,
Cn1c(=O)c2nc3c4ccccc4c(=O)n(C)c3nc2n(C)c1=O,,,inactive
O=C(O)CCC(=O)c1ccc2c(c1)C(C(=O)O)CC2 (configuration not stated),< 3.70,< 3.70,
C1CCC2(CC1)O[C@@H]1[C@@H](O2)[C@@H](O[C@H]2O[C@@H]3COC4(CCCCC4)O[C@H]3[C@@H]3OC4(CCCCC4)O[C@@H]23)O[C@@H]2COC3(CCCCC3)O[C@@H]12,< 4.00,< 4.00,
N#C/C(=C\N1CC(=O)NC1=S)c1nc2ccccc2s1,,,inactive
CC/C(=C(\CC)c1ccc(OCCCN2CCCCC2C)cc1)c1ccc(OCCCN2CCCCC2C)cc1 (configuration not stated),< 4.70,5.64,
N#CC1=C(O)NC(O)=C(C#N)C12C(=O)Nc1ccccc12,< 3.10,< 3.10,
Oc1cc2ccccc2c2sc(-c3ccccc3)c(-c3ccccc3)[n+]12,< 3.70,4.75,
O=C(O)C(SC(=S)c1ccc(C(=S)SC(C(=O)O)c2ccccc2)cc1)c1ccccc1 (configuration not stated),,,inactive
COC(=O)/C=C/CCC#Cc1ccccc1C#CCC/C=C/C(=O)OC,< 3.70,5.55,
CCOC(=O)c1ccc(CSc2ccccc2C(=O)O)cc1,< 4.78,< 4.78,
CCc1c(Cc2cc(C)cc(C)c2)n(COCCSc2ccccc2)c(=O)[nH]c1=O,6.31,4.81,
CC(C)CCC[C@@H](C)[C@H]1CC[C@H]2[C@@H]3CCC4C[C@@H](CCC=C(c5cc(Cl)c(OCc6ccccc6C(=O)O)c(C(=O)O)c5)c5cc(Cl)c(OCc6ccccc6C(=O)O)c(C(=O)O)c5)CC[C@]4(C)[C@H]3CC[C@]12C (some centres not stated),4.35,< 3.70,
CCOC(=O)/C=C/c1ccc(F)cc1,< 4.01,< 4.01,
COC1/C=C/OC2(C)Oc3c(C)c(O)c4c(O)c(c(/C=N/N5CCOCC5)c(O)c4c3C2=O)NC(=O)C(C)=C/C=C\C(C)C(O)C(C)C(O)C(C)C(O)C1C (configuration not stated),< 3.90,4.14,
NS(=O)(=O)c1ccc(C(=O)O)cc1,< 3.70,< 3.70,
CC(=S)N=Cc1c(N)[nH]n(-c2ccccc2)c1=O,< 3.70,< 3.70,
